# From US20110028448A1, “PYRIDINE COMPOUNDS” (priority 2008, published 2011)
# Biological target: recombinant human S1P1 receptor (Homo sapiens, UniProt P21453)
# Assay: GTPγS assay to determine EC50 values
# Type: biochemical
# Settings: not given
# Description: GTPγS Assay to Determine EC50 Values
# The pH is 7.4. Test compounds are dissolved and diluted in 100% DMSO and pre-incubated at room temperature for 30 min in 150 μl of the above assay buffer, in the absence of ^35S-GTPγS. After addition of 50 μl of ^35S-GTPγS, the assay is incubated for 1 h at rt. […] Membrane-bound ^35S-GTPγS is measured with a TopCount from Packard Biosciences.
# Specific binding is determined by subtracting non-specific binding from maximal binding. Maximal binding is the amount of cpm bound to the Multiscreen plate in the presence of 10 μM of S1P. Non-specific binding is the amount of binding in the absence of an agonist in the assay.
# Sequence of recombinant human S1P1 receptor (P21453 whole entry): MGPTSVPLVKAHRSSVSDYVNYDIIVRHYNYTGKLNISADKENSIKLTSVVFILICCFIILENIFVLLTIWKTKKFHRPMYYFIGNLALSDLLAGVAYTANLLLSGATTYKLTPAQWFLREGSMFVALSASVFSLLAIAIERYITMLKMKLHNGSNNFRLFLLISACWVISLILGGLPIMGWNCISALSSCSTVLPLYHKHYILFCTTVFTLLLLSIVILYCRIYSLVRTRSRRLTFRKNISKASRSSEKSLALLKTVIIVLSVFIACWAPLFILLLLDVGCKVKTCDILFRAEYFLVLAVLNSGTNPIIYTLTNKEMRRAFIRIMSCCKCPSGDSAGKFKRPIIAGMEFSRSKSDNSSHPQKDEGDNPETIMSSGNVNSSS
row,Compound,EC50 [nM]
1,"CCc1cc(-c2nc(-c3cc(C)c(CCC(=O)NCCO)c(CC)c3)no2)cnc1N(C)C(C)C [Example 46, 3-(2-Ethyl-4-{5-[5-ethyl-6-(isopropyl-methyl-amino)-pyridin-3-yl]-[1,2,4]oxadiazol-3-yl}-6-methyl-phenyl)-N-(2-hydroxy-ethyl)-propionamide]",5

# Same assay, conditions: 35S-GTPγS binding, membrane preparations of CHO cells expressing recombinant human S1P1 receptor; read-out: EC50
row,Compound,EC50 [nM]
1,"CCc1cc(-c2noc(-c3cnc(N(C)CC)c(C)c3)n2)cc(C)c1OC[C@H](O)CNC(=O)CO [Example 6, N-[(R)-3-(2-Ethyl-4-{5-[6-(ethyl-methyl-amino)-5-methyl-pyridin-3-yl]-[1,2,4]oxadiazol-3-yl}-6-methyl-phenoxy)-2-hydroxy-propyl]-2-hydroxy-acetamide]",3
2,"CCc1cc(-c2noc(-c3cnc(N(C)C(C)C)c(C)c3)n2)cc(C)c1OC[C@@H](O)CNC(=O)CO [Example 15, N-[(S)-3-(2-Ethyl-4-{5-[6-(isopropyl-methyl-amino)-5-methyl-pyridin-3-yl]-[1,2,4]oxadiazol-3-yl}-6-methyl-phenoxy)-2-hydroxy-propyl]-2-hydroxy-acetamide]",20
3,"CCc1cc(-c2nc(-c3cc(C)c(OC[C@@H](O)CO)c(CC)c3)no2)cnc1N(CC)CC [Example 24, (S)-3-{4-[5-(6-Diethylamino-5-ethyl-pyridin-3-yl)-[1,2,4]oxadiazol-3-yl]-2-ethyl-6-methyl-phenoxy}-propane-1,2-diol]",12
4,"CCc1cc(-c2nc(-c3cc(C)c(OC[C@@H](O)CO)c(CC)c3)no2)cnc1N(C)C(C)C [Example 31, (S)-3-(2-Ethyl-4-{5-[5-ethyl-6-(isopropyl-methyl-amino)-pyridin-3-yl]-[1,2,4]oxadiazol-3-yl}-6-methyl-phenoxy)-propane-1,2-diol]",17
5,"CCc1cc(-c2nc(-c3cc(C)c(OC[C@H](O)CNC(=O)CO)c(CC)c3)no2)cnc1N(C)C(C)C [Example 34, N-[(R)-3-(2-Ethyl-4-{5-[5-ethyl-6-(isopropyl-methyl-amino)-pyridin-3-yl]-[1,2,4]oxadiazol-3-yl}-6-methyl-phenoxy)-2-hydroxy-propyl]-2-hydroxy-acetamide]",3
6,"CCc1cc(-c2nc(-c3cc(C)c(CCC(=O)NCC(=O)O)c(CC)c3)no2)cnc1N(CC)CC [Example 44, (3-{4-[5-(6-Diethylamino-5-ethyl-pyridin-3-yl)-[1,2,4]oxadiazol-3-yl]-2-ethyl-6-methyl-phenyl}-propionylamino)-acetic acid]",4

# Second part, the molecule after the results:
row,EC50 [nM],Compound
1,0.9,"CCN(CC)c1ncc(-c2nc(-c3cc(C)c(OC[C@@H](O)CNC(=O)CO)c(C)c3)no2)cc1C [Example 55, N-((S)-3-{4-[5-(6-Diethylamino-5-methyl-pyridin-3-yl)-[1,2,4]oxadiazol-3-yl]-2,6-dimethyl-phenoxy}-2-hydroxy-propyl)-2-hydroxy-acetamide]"
2,1.3,"CCN(CC)c1ncc(-c2nc(-c3cc(C)c(OC[C@@H](O)CNC(=O)CO)c(Cl)c3)no2)cc1C [Example 56, N-((S)-3-{2-Chloro-4-[5-(6-diethylamino-5-methyl-pyridin-3-yl)-[1,2,4]oxadiazol-3-yl]-6-methyl-phenoxy}-2-hydroxy-propyl)-2-hydroxy-acetamide]"
3,14,"CCN(CC)c1ncc(-c2nc(-c3ccc(OC[C@@H](O)CNC(=O)CO)cc3C)no2)cc1C [Example 58, N-((S)-3-{4-[5-(6-Diethylamino-5-methyl-pyridin-3-yl)-[1,2,4]oxadiazol-3-yl]-3-methyl-phenoxy}-2-hydroxy-propyl)-2-hydroxy-acetamide]"
4,5.2,"CCN(CC)c1ncc(-c2nc(-c3cc(C)c(OC[C@@H](O)CO)c(Cl)c3)no2)cc1C [Example 63, (S)-3-{2-Chloro-4-[5-(6-diethylamino-5-methyl-pyridin-3-yl)-[1,2,4]oxadiazol-3-yl]-6-methyl-phenoxy}-propane-1,2-diol]"
5,8.9,"CCN(CC)c1ncc(-c2nc(-c3cc(Cl)c(OC[C@@H](O)CO)c(OC)c3)no2)cc1C [Example 64, (S)-3-{2-Chloro-4-[5-(6-diethylamino-5-methyl-pyridin-3-yl)-[1,2,4]oxadiazol-3-yl]-6-methoxy-phenoxy}-propane-1,2-diol]"
6,21.2,"CCc1cc(-c2nnc(-c3cnc(N(CC)CC)c(C)c3)o2)cc(C)c1OC[C@@H](O)CNC(=O)CO [Example 68, N-((2S)-3-{4-[5-(6-Diethylamino-5-methyl-pyridin-3-yl)-[1,3,4]oxadiazol-2-yl]-2-ethyl-6-methyl-phenoxy}-2-hydroxy-propyl)-2-hydroxy-acetamide]"

# Same assay, conditions: 35S-GTPγS binding, membranes of CHO cells expressing human S1P1; read-out: EC50
row,Compound,EC50 [nM]
1,CCc1cc(-c2noc(-c3cnc(N4CCCC4)c(C)c3)n2)cc(C)c1OC[C@H](O)CN [Example 18],> 10000
2,CCc1cc(-c2noc(-c3cnc(N4CCCC4)c(C)c3)n2)cc(C)c1OC[C@@H](O)CN [Example 19],> 10000

# Tested on: circulating lymphocytes
# Assay: Assessment of in vivo efficacy: circulating lymphocytes after oral administration
# Set-up: species or system rat
# Settings: 6 h after oral administration of 10 mg/kg, normotensive male Wistar rats, compared to vehicle-treated group
# Description: Assessment of In Vivo Efficacy
# The efficacy of the compounds of Formula (I) is assessed by measuring the circulating lymphocytes after oral administration of 3 to 30 mg/kg of a compound of Formula (I) to normotensive male Wistar rats. The animals are housed in climate-controlled conditions with a 12 h-light/dark cycle, and have free access to normal rat chow and drinking water. Blood is collected before and 3, 6 and 24 h after drug administration. Full blood is subjected to hematology using Advia Hematology system (Bayer Diagnostics, Zürich, Switzerland).
# All data are presented as mean±SEM. Statistical analyses are performed by analysis of variance (ANOVA) using Statistica (StatSoft) and the Student-Newman-Keuls procedure for multiple comparisons. The null hypothesis is rejected when p<0.05.
row,Compound,Lymphocyte counts [%]
1,"CCc1cc(-c2noc(-c3cnc(N(CC)CC)c(C)c3)n2)cc(C)c1OC[C@@H](O)CNC(=O)CO [Example 8, N-((S)-3-{-4-[5-(6-Diethylamino-5-methyl-pyridin-3-yl)-[1,2,4]oxadiazol-3-yl]-2-ethyl-6-methyl-phenoxy}-2-hydroxy-propyl)-2-hydroxy-acetamide]",−66
2,"CCc1cc(-c2nc(-c3cc(C)c(OC[C@H](O)CNC(=O)CO)c(CC)c3)no2)cnc1N(CC)CC [Example 27, N-((R)-3-{4-[5-(6-Diethylamino-5-ethyl-pyridin-3-yl)-[1,2,4]oxadiazol-3-yl]-2-ethyl-6-methyl-phenoxy}-2-hydroxy-propyl)-2-hydroxy-acetamide]",−55
3,"CCc1cc(-c2nc(-c3cc(C)c(OC[C@@H](O)CNC(=O)CO)c(CC)c3)no2)cnc1N(CC)CC [Example 28, N-((S)-3-{4-[5-(6-Diethylamino-5-ethyl-pyridin-3-yl)-[1,2,4]oxadiazol-3-yl]-2-ethyl-6-methyl-phenoxy}-2-hydroxy-propyl)-2-hydroxy-acetamide]",−56
4,"CCc1cc(-c2nc(-c3cc(C)c(OC[C@@H](O)CNC(=O)CO)c(CC)c3)no2)cnc1N1CCCC1 [Example 54, N-((S)-3-{2-Ethyl-4-[5-(5-ethyl-6-pyrrolidin-1-yl-pyridin-3-yl)-[1,2,4]oxadiazol-3-yl]-6-methyl-phenoxy}-2-hydroxy-propyl)-2-hydroxy-acetamide]",−57
